Measurements as given in patent US20160177395A1, “BIOMARKERS FOR THE PREDICTION OF RENAL INJURY” (priority 2007, published 2016).
Several values for one entry are separate records, joined by “and”; a condition that tells them apart may be missing. Equal values may be shown once. Entries after “also recorded” stand apart in the source; their conditions may differ.

What was measured:
[1] = tested on: kidney tissues of treated or untreated rats; test: Real-time qRT-PCR of signature amplicons, validation stage, labeled and un-labeled samples (Table 23); conditions: for H31883_DB71_seg13 normalized qRT-PCR result / MUSCYCG1R_DB81_seg19-20 normalized qRT-PCR result / W41270_DB81_seg11 normalized qRT-PCR result: labeled sample, one line per animal
Summary of the method: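 Rat kidney RNA, labeled and un-labeled samples, run over seven plates; two amplicons per signature gene (wild-type and splice variant). Values normalized to housekeeping genes, then per plate and amplicon by geometric mean of ratios against a shuffled normalization plate (outliers removed), then scaled.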

[2] = tested on: Sprague-Dawley Crl:CD(SD) rats; test: Rat toxicity study, single, 5-day and 28-day treatment (clinical observation, clinical pathology, autopsy, organ weights, histopathology); conditions: for Organ weight: compared with controls;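 for all read-outs here: control rats received saline intraperitoneally, and the organs examined were adrenals, brain, kidneys, liver, spleen and thymus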
Procedure: Control animals were treated intraperitoneal with saline.
Randomization and group allocation: prior to treatment, the animals were assigned to the experimental groups based on their body weight. Mean body weight of each group at randomization was not deviate±20% of the mean population weight. Males and females were randomized separately. For the randomization, a computer program was used.
The day before autopsy, urinalysis was performed and blood samples were taken for hematology and clinical chemistry examinations.
On the day of autopsy the animals were anaesthetized with isoflurane, blood was collected for PBMC isolation then subjected to autopsy. Tissues and organs (adrenals, brain, kidneys, liver, spleen and thymus) were weighed and subjected to gross pathological and histopathological examinations.

[3] = day1, female rat kidney, listed as Cis
[4] = day1, male rat kidney, listed as Cis
[5] = day28, female rat kidney, listed as Cis
[6] = day28, male rat kidney, listed as Cis
[7] = labeled samples, day1, kidney of individual male/female rats, listed as Cis
[8] = labeled samples, day5, kidney of individual male/female rats, listed as Cis
[9] = labeled samples, day28, kidney of individual male/female rats, listed as Cis
[10] = labeled samples, day1, kidney of individual male/female rats
[11] = labeled samples, day5, kidney of individual male/female rats
[12] = labeled samples, day28, kidney of individual male/female rats
[13] = 28-day treatment, male and female rats

N.N.[Cl][Pt][Cl] [Cisplatin]
H31883_DB71_seg13 normalized qRT-PCR result [1, 3]: 0.844 and 1.209 and 1.345 | MUSCYCG1R_DB81_seg19-20 normalized qRT-PCR result [1, 3]: 0.631 and 0.788 and 0.899 | W41270_DB81_seg11 normalized qRT-PCR result [1, 3]: 0.81 and 1.261 and 1.096 | H31883_DB71_seg13 normalized qRT-PCR result [1, 4]: 0.799 and 1.09 and 0.902 | MUSCYCG1R_DB81_seg19-20 normalized qRT-PCR result [1, 4]: 0.495 and 1.64 and 0.811 | W41270_DB81_seg11 normalized qRT-PCR result [1, 4]: 0.815 and 2.455 and 1.176 | H31883_DB71_seg13 normalized qRT-PCR result [1, 5]: 1.749 and 0.786 and 1.864 | MUSCYCG1R_DB81_seg19-20 normalized qRT-PCR result [1, 5]: 2.301 and 1.555 and 3.336 | W41270_DB81_seg11 normalized qRT-PCR result [1, 5]: 2.504 and 2.643 and 5.783 | H31883_DB71_seg13 normalized qRT-PCR result [1, 6]: 1.587 and 0.786 and 1.371 | MUSCYCG1R_DB81_seg19-20 normalized qRT-PCR result [1, 6]: 4.504 and 1.428 and 1.753 | W41270_DB81_seg11 normalized qRT-PCR result [1, 6]: 5.917 and 3.371 and 3.008 | H31883_DB71_seg13 normalized qRT-PCR expression (Cyclin-G1 (CCNG1) transcript) [1, 7]: 0.668 and 0.853 and 1.416 and 2.092 and 2.559 and 1.134 | MUSCYCG1R_DB81_seg19-20 normalized qRT-PCR expression [1, 7]: 0.806 and 1.514 and 1.492 and 3.259 and 2.003 and 1.277 | W41270_DB81_seg11 normalized qRT-PCR expression (tumor necrosis factor receptor superfamily, member 12a transcript) [1, 7]: 0.679 and 0.759 and 1.331 and 1.029 and 1.224 and 0.496 | AI045075_DB71_seg6 normalized qRT-PCR expression (Interferon stimulated exonuclease 20 (ISG20) transcript) [1, 8]: 1.804 and 1.683 and 4.298 and 1.503 and 0.93 and 1.09 | H31883_DB71_seg13 normalized qRT-PCR expression (Cyclin-G1 (CCNG1) transcript) [1, 8]: 3.816 and 5.526 and 3.771 and 1.509 and 1.642 and 2.695 | MUSCYCG1R_DB81_seg19-20 normalized qRT-PCR expression [1, 8]: 2.034 and 4.156 and 4.947 and 0.981 and 3.172 and 1.643 | W41270_DB81_seg11 normalized qRT-PCR expression (tumor necrosis factor receptor superfamily, member 12a transcript) [1, 8]: 1.262 and 3.597 and 1.404 and 0.843 and 2.113 and 0.705 | W64472_DB81_seg2 normalized qRT-PCR expression (Interferon stimulated exonuclease 20 (ISG20) transcript) [1, 8]: 1.795 and 3.64 and 6.414 and 1.976 and 1.448 and 1.265 | W83813_DB81_seg27 normalized qRT-PCR expression [1, 8]: 1.716 and 0.857 and 1.461 and 1.366 and 0.758 and 1.265 | H31883_DB71_seg13 normalized qRT-PCR expression (Cyclin-G1 (CCNG1) transcript) [1, 9]: 4.41 and 2.839 and 2.398 and 2.653 and 5.592 and 3.563 | MUSCYCG1R_DB81_seg19-20 normalized qRT-PCR expression [1, 9]: 3.509 and 3.443 and 1.813 and 3.094 and 7.02 and 3.473 | W41270_DB81_seg11 normalized qRT-PCR expression (tumor necrosis factor receptor superfamily, member 12a transcript) [1, 9]: 4.741 and 4.104 and 2.053 and 1.904 and 4.516 and 3.866

Gentamycin
H31883_DB71_seg13 normalized qRT-PCR result ([1]; day1, female rat kidney): 0.963 and 0.98 and 0.898 | MUSCYCG1R_DB81_seg19-20 normalized qRT-PCR result ([1]; day1, female rat kidney): 1.251 and 0.889 and 2.053 | W41270_DB81_seg11 normalized qRT-PCR result ([1]; day1, female rat kidney): 0.763 and 0.963 and 1.408 | H31883_DB71_seg13 normalized qRT-PCR result ([1]; day1, male rat kidney): 1.02 and 1.409 and 1.161 | MUSCYCG1R_DB81_seg19-20 normalized qRT-PCR result ([1]; day1, male rat kidney): 1.072 and 1.848 and 1.221 | W41270_DB81_seg11 normalized qRT-PCR result ([1]; day1, male rat kidney): 1.567 and 1.869 and 1.48 | H31883_DB71_seg13 normalized qRT-PCR result ([1]; day28, female rat kidney): 0.421 and 0.441 and 0.434 | MUSCYCG1R_DB81_seg19-20 normalized qRT-PCR result ([1]; day28, female rat kidney): 0.967 and 2.632 and 1.78 | W41270_DB81_seg11 normalized qRT-PCR result ([1]; day28, female rat kidney): 0.806 and 1.079 and 1.164 | H31883_DB71_seg13 normalized qRT-PCR result ([1]; day28, male rat kidney): 0.852 and 0.857 and 0.756 | MUSCYCG1R_DB81_seg19-20 normalized qRT-PCR result ([1]; day28, male rat kidney): 1.734 and 3.06 and 1.469 | W41270_DB81_seg11 normalized qRT-PCR result ([1]; day28, male rat kidney): 1.55 and 1.353 and 1.245 | H31883_DB71_seg13 normalized qRT-PCR expression (Cyclin-G1 (CCNG1) transcript) [1, 10]: 0.772 and 1.118 and 0.987 and 1.115 and 0.84 and 1.053 | MUSCYCG1R_DB81_seg19-20 normalized qRT-PCR expression [1, 10]: 0.842 and 1.155 and 1.361 and 2.011 and 1.387 and 2.861 | W41270_DB81_seg11 normalized qRT-PCR expression (tumor necrosis factor receptor superfamily, member 12a transcript) [1, 10]: 1.361 and 1.037 and 0.904 and 1.08 and 2.078 and 0.85 | Label: true label (Normal/Toxic), known renal toxic effect ([1]; labeled samples, day5): Toxic | AI045075_DB71_seg6 normalized qRT-PCR expression (Interferon stimulated exonuclease 20 (ISG20) transcript) [1, 11]: 1.337 and 1.374 and 1.402 and 1.778 and 1.636 and 1.256 | H31883_DB71_seg13 normalized qRT-PCR expression (Cyclin-G1 (CCNG1) transcript) [1, 11]: 0.948 and 1.09 and 0.78 and 1.142 and 1.402 and 1.515 | MUSCYCG1R_DB81_seg19-20 normalized qRT-PCR expression [1, 11]: 1.085 and 0.993 and 0.955 and 1.442 and 1.842 and 1.644 | W41270_DB81_seg11 normalized qRT-PCR expression (tumor necrosis factor receptor superfamily, member 12a transcript) [1, 11]: 0.983 and 0.954 and 1.104 and 1.699 and 0.82 and 2.64 | W64472_DB81_seg2 normalized qRT-PCR expression (Interferon stimulated exonuclease 20 (ISG20) transcript) [1, 11]: 1.733 and 2.048 and 1.962 and 1.427 and 1.403 and 1.53 | W83813_DB81_seg27 normalized qRT-PCR expression [1, 11]: 1.688 and 1.042 and 0.702 and 1.441 and 1.395 and 0.76 | H31883_DB71_seg13 normalized qRT-PCR expression (Cyclin-G1 (CCNG1) transcript) [1, 12]: 0.853 and 0.861 and 0.553 and 0.817 and 0.554 and 0.842 | MUSCYCG1R_DB81_seg19-20 normalized qRT-PCR expression [1, 12]: 0.863 and 1.072 and 0.617 and 0.865 and 0.729 and 1.661 | W41270_DB81_seg11 normalized qRT-PCR expression (tumor necrosis factor receptor superfamily, member 12a transcript) [1, 12]: 1.614 and 1.342 and 1.315 and 1.194 and 1.188 and 1.941 | Autopsy findings ([2]; 5-day treatment): No effect | Body weight gain ([2]; 5-day treatment): Body weight gain was decreased in females | Clinical pathology ([2]; 5-day treatment): elevated urea nitrogen levels found in females; also recorded: ♀: ↑↑BUN | Histopathology / renal damage ([2]; 5-day treatment): No nephrotoxicity was observed; also recorded: No renal damage was found at histopathological examination | Organ weight ([2]; 5-day treatment): No effect | Body weight and body weight gain ([2]; 28-day treatment): affected body weight gain of animals in both sexes; also recorded: Effect on body weight and body weight gain was seen | Histopathology / nephrotoxicity ([2]; 28-day treatment): Signs of nephrotoxicity occurred in all animals of both sexes; also recorded: nephrotoxic effect of the test item was confirmed by histopathology; also recorded: basophilia in the cortex | Decreasing order of nephrotoxicity at histopathological examination ([2]; 28-day treatment, females): Cisplatin, Cadmium chloride, Gentamycin, Doxorubicin and Tobramycin in females | Autopsy findings [2, 13]: enlarged and discolored kidneys were observed in males; also recorded: Alterations were found in the kidneys; also recorded: ♂♀: ↑↑, pale | Organ weight [2, 13]: Kidney weight increased in both sexes and Increased weights of kidneys in males and Higher weights of kidneys in females and Weights of spleen were higher in Gentamycin treated males and Decreased thymus weights were found in Gentamycin and Tobramycin treated males and ↑↑ | Decreasing order of nephrotoxicity at histopathological examination ([2]; 28-day treatment, males): Cisplatin, Gentamycin, Tobramycin and Doxorubicin in males
